Earlier results, collected in patent publication US20250320459A1, “FUNCTIONALIZED MOLECULAR LAYERS AND SCAFFOLDS, AND METHODS OF PREPARATION AND USE THEREOF” (PURDUE RESEARCH FOUNDATION, priority 2022, published 2025).

Target: WGA

Compound: CC(=O)N[C@H]1C(O)O[C@H](CO)[C@@H](O)[C@@H]1O (stereo partly drawn) [GlcNAc, N-acetyl-D-glucosamine]
- KD, monovalent interactions between WGA and GlcNAc (monovalent): micromolar to millimolar range
- KD, multivalent interactions between WGA and GlcNAc (multivalent): nanomolar range
